# Where “and” joins values, the source holds several entries; their conditions need not be identical. Equal entries are not always repeated.
# Target: Replicase polyprotein 1ab (Severe acute respiratory syndrome coronavirus 2, UniProt P0DTD1)
# Assay: Functional biochemical assay to identify treatments for viral infectious disease that targets SARS-COV-2 nsp3 macrodomain, whereby the mechanism of action displaces an ADP-Ribose modified peptide from the binding site. Utilizing a time-resolved fluorescence method to measure binding by reading the emitted fluorescence intensity in two wavelengths.
row,SMILES,IC50
1,CNC(=O)c1cc2c(N[C@@H](c3ccc4c(c3)OCCO4)C(C)C)ncnc2[nH]1,0.45 µM and 0.366 µM
2,CC(C)[C@@H](Nc1ncnc2[nH]c(-c3cnn(CC(N)=O)c3)cc12)c1ccc2c(c1)OCCO2,0.383 µM and 0.361 µM and 0.247 µM and 0.258 µM
3,COC(=O)c1c[nH]c(-c2cc(N[C@@H](c3ccc4c(c3)OCCO4)C(C)C)ncn2)c1,> 99.5 µM
4,CC(C)[C@@H](Nc1ncnc2[nH]ccc12)c1ccc2c(c1)OCC(=O)N2,27.2 µM and 24.2 µM
5,CC(C)(C)[C@@H](Nc1ncnc2[nH]ccc12)c1ccc2c(c1)OCCO2,1.23 µM and 1.06 µM
6,O=C(O)[C@@H](CC1CCCCC1)Nc1ncnc2[nH]ccc12,74.6 µM and 71.4 µM
7,CNc1ccc([C@@H](CC(=O)O)NC(=O)c2ncnc3[nH]ccc23)cc1,28.9 µM and 34.6 µM
8,Cn1c(C(=O)O)c(NC(=O)c2ccc(NC(=O)NC3CC3)cc2)c2cccnc21,> 99.5 µM
9,c1nc(Nc2ccc3c(c2)OCO3)c2cc[nH]c2n1,> 99.5 µM
10,CNC(=O)c1ccc([C@@H](CC(=O)O)NC(=O)c2ncnc3[nH]ccc23)cc1,9.07 µM and 13.4 µM
11,CC(C)[C@@H](Nc1ncnc2[nH]c3cc(F)ccc3c12)c1ccc2c(c1)OCCO2,8.54 µM and 10 µM
12,CC(C)[C@@H](Nc1cc(-c2c[nH]cn2)ncn1)c1ccc2c(c1)OCCO2,> 99.5 µM
13,O=C(O)[C@@H](CC1CC1)Nc1ncnc2[nH]ccc12,> 99.5 µM
14,COCc1noc(C)c1-c1cc2c(N[C@@H](c3ccc4c(c3)OCCO4)C(C)C)ncnc2[nH]1,> 99.5 µM
15,CC(C)[C@@H](Nc1ncnc2[nH]c(-c3cnoc3)cc12)c1ccc2c(c1)OCCO2,29.9 µM and > 99.5 µM
16,C[C@@H](Nc1ncnc2[nH]ccc12)[C@@H]1CCOC1,> 99.5 µM
17,CC(C)[C@@H]1C[C@H](Nc2[nH]cnc3nccc2-3)CCO1,> 99.5 µM
18,CC(C)[C@@H]1C[C@@H](Nc2ncnc3[nH]ccc23)CCO1,> 99.5 µM
19,COc1cccc([C@@H](CC(=O)O)NC(=O)c2ncnc3[nH]ccc23)c1,16.3 µM and 21.7 µM
20,O=C(O)[C@@H]1C[C@@H]2OCC[C@@H]2N1c1ncnc2[nH]ccc12,> 99.5 µM
21,O=C(O)C[C@@H](NC(=O)c1ncnc2[nH]ccc12)c1ccc(NCC2=NO[C@@H]3COC[C@H]23)cc1,7.29 µM and 8.33 µM
22,COc1ccc(CN(c2ncnc3[nH]ccc23)C(C)C)cc1OC,> 99.5 µM
23,CS(=O)(=O)Nc1cccc([C@@H](CC(=O)O)NC(=O)c2ncnc3[nH]ccc23)c1,50.4 µM and 38.6 µM and 39.5 µM
24,CC(C)[C@@H](Nc1ncnc2[nH]ccc12)c1ccc2c(c1)CCCS2(=O)=O,3.01 µM and 2.64 µM
25,CC(=O)Nc1ccc([C@@H](CC(=O)O)NC(=O)c2ncnc3[nH]ccc23)cc1,14.5 µM and 14.6 µM
26,CC(C)[C@@H](Nc1ccc(NC(=O)NC2CC2)cc1)c1ccc2c(c1)OCCO2,> 99.5 µM

row,SMILES,IC50
1,O=C(Nc1ccc(C(=O)Nc2c(C(=O)O)sc3ccncc23)cc1)NC1CC1,> 99.5 µM
2,c1nc(N[C@@H](c2ccc3c(c2)OCCO3)C2CCC2)c2cc[nH]c2n1,5.2 µM and 6.52 µM
3,CC(C)[C@@H](Nc1ncnc2[nH]ccc12)c1cnn(C)c1,3.93 µM and 3.17 µM
4,Cc1nnc(Nc2ccc(C(=O)N[C@@H]3c4cccc(O)c4C[C@H]3C(=O)O)cc2)o1,25.3 µM and 26 µM
5,N=C(N)C[C@@H](NC(=O)c1ncnc2[nH]ccc12)c1ccc(Br)cc1,> 99.5 µM
6,O=C(O)[C@@H](CC(F)F)Nc1ncnc2[nH]ccc12,80.7 µM and 94.4 µM
7,CNC(=N)C[C@@H](NC(=O)c1ncnc2[nH]ccc12)c1ccc(Br)cc1,> 99.5 µM
8,O=C(Nc1cccc2c(C(=O)N[C@H]3c4ccccc4C[C@H]3C(=O)O)c[nH]c12)NC1CC1,7.83 µM and 6.58 µM
9,CC(C)[C@@H](Nc1ncnc2[nH]ccc12)c1cccc(C(F)(F)F)c1,83.2 µM and 77.6 µM
10,C[C@@H](Nc1ncnc2[nH]ccc12)[C@@H]1CCCCO1,> 99.5 µM
11,Cc1nc2nc[nH]c(NC(=O)c3ccc(NC(=O)NC4CC4)nc3)c-2c1C,> 99.5 µM
12,O=C(O)C[C@@H](NC(=O)c1ncnc2[nH]ccc12)c1ccc(Nc2nnc(C3CC3)o2)cc1,3.78 µM and 4.55 µM
13,O=C(O)[C@@H]1[C@@H](c2ccccc2)CCN1c1ncnc2[nH]ccc12,> 99.5 µM
14,COc1ccc(Nc2ncnc3[nH]ccc23)cc1OC,> 99.5 µM
15,Cc1nn(CC(C)C)c(Cl)c1[C@@H]1CCCN1c1ncnc2[nH]ccc12,> 99.5 µM
16,O=C(Nc1ccc(C(=O)Nc2c(C(=O)O)oc3cc(Br)ccc23)cc1)NC1CC1,> 99.5 µM
17,O=C(Nc1ccc(C(=O)N[C@@H]2c3ccccc3C[C@@H]2C(=O)O)cc1)c1ccc2c(c1)OCCO2,> 99.5 µM
18,CC(C)Cc1ccc2c(NC(=O)c3ccc(NC(=O)NC4CC4)cc3)c(C(=O)O)sc2n1,> 99.5 µM
19,COc1ccc([C@@H](Nc2ncnc3[nH]ccc23)C(C)C)cc1OC,> 99.5 µM
20,FC(F)[C@@H](Nc1ncnc2[nH]ccc12)c1ccc2c(c1)OCCO2,16 µM and 22.8 µM
21,COc1ccc([C@@H](Cc2nn[nH]n2)NC(=O)c2nc(C)nc3[nH]ccc23)cc1,1.84 µM and 1.65 µM
22,O[C@@H]1CCCC[C@@H]1Nc1ncnc2[nH]ccc12,> 99.5 µM and 95.3 µM
23,O=C(Nc1cccc2c(C(=O)Nc3cc4c(cc3C(=O)O)OCCO4)c[nH]c12)NC1CC1,> 99.5 µM
24,CNC(=O)c1cccc([C@@H](CC(=O)O)NC(=O)c2ncnc3[nH]ccc23)c1,18.7 µM and 17.4 µM
25,CC(C)[C@@H](Nc1ncnc2[nH]ccc12)c1ccc2c(c1)C(=O)NCC2,2.25 µM and 2.44 µM
26,COc1ccc([C@@H](Cc2nn[nH]n2)NC(=O)c2nc(OC)nc3[nH]ccc23)cc1,4.55 µM and 4.97 µM

row,SMILES,IC50
1,O=C(O)C[C@@H](NC(=O)c1ncnc2[nH]c3cc(F)ccc3c12)c1ccc(Br)cc1,0.992 µM and 1.01 µM
2,CC(C)[C@@H](Nc1ncc2c(n1)CCCC2)c1ccc2c(c1)OCCO2,> 99.5 µM
3,CS(=O)(=O)Nc1ccc([C@@H](CC(=O)O)NC(=O)c2ncnc3[nH]ccc23)cc1,12.1 µM and 10 µM
4,CC(C)[C@@H](Nc1cc(-c2cc[nH]n2)ncn1)c1ccc2c(c1)OCCO2,> 99.5 µM
5,CC(C)[C@@H](Nc1cnc(C(=O)O)cn1)c1ccc2c(c1)OCCO2,> 99.5 µM
6,Cc1nnc(Nc2ccc(C(=O)N[C@@H]3c4cccc(O)c4C[C@@H]3C(=O)O)cc2)o1,7.16 µM and 7.38 µM
7,c1nc(N[C@@H](c2ccc3c(c2)OCCO3)C2CC2)c2cn[nH]c2n1,17.7 µM and 19.9 µM
8,O=C(O)C[C@@H](NC(=O)c1ccc(NC(=O)NC2CC2)cc1)c1cccnc1,77.1 µM and 68.2 µM
9,c1nc(N2CCC[C@@H]2c2ccc3c(c2)OCCO3)c2cc[nH]c2n1,> 99.5 µM
10,CNc1cccc([C@@H](CC(=O)O)NC(=O)c2ncnc3[nH]ccc23)c1,66.3 µM and 25.7 µM
11,O=C(O)C[C@@H](NC(=O)c1ccc(NC(=O)NC2CC2)cc1)c1cccc(C(F)F)c1,76.4 µM and 72.3 µM
12,CC(C)[C@@H](Nc1ncnc2[nH]c(-c3cc[nH]n3)cc12)c1ccc2c(c1)OCCO2,1.81 µM and 1.88 µM
13,O=C(O)C[C@H](NC(=O)c1ccc(NC(=O)NC2CC2)cc1)c1cccnc1,50.1 µM and 58.4 µM
14,Cc1[nH]c2ncnc(NC(=O)c3ccc(-n4cccc4)nc3)c2c1C,> 99.5 µM
15,Cc1nnc(Nc2ccc(C(=O)N[C@H]3c4cccc(O)c4C[C@H]3C(=O)O)cc2)o1,> 99.5 µM
16,COc1ccc([C@@H](CC(=O)O)NC(=O)c2cc3cccc(NC(=O)NC4CC4)c3[nH]2)cc1,> 99.5 µM
17,O=C(Nc1cccc2c(C(=O)Nc3cc4c(cc3CO)OCCO4)c[nH]c12)NC1CC1,> 99.5 µM
18,CC(=O)Nc1cccc([C@@H](CC(=O)O)NC(=O)c2ncnc3[nH]ccc23)c1,25.8 µM and > 12.4 µM and 20.7 µM
19,O=C(O)C[C@@H](NC(=O)c1ccc(NC(=O)NC2CC2)cc1)c1cccc(O)c1,9.04 µM and 8.76 µM
20,c1nc(N[C@@H](C2CC2)[C@@H]2CCCOC2)c2cc[nH]c2n1,> 99.5 µM
21,Cc1nnc(Nc2ccc(C(=O)N[C@H]3c4cccc(O)c4C[C@@H]3C(=O)O)cc2)o1,> 99.5 µM
22,O=C(O)C[C@@H](NC(=O)c1ccc(NC(=O)NC2CC2)cc1)C1CCOCC1,> 99.5 µM
23,O=C(O)C[C@@H](NC(=O)c1c[nH]c2ncncc12)c1ccc(NCC2=NO[C@@H]3COC[C@H]23)cc1,> 99.5 µM
24,Cc1nnc(Nc2ccc([C@@H](CC(=O)O)NC(=O)c3ncnc4[nH]ccc34)cc2)o1,12.2 µM and 10.1 µM
25,O=C(O)[C@@H](Nc1ncnc2[nH]ccc12)c1ccc2c(c1)OCCO2,9.41 µM and 7.95 µM
26,CO[C@@H]1C[C@@H](C(=O)O)N(c2ncnc3[nH]ccc23)C1,> 99.5 µM

row,SMILES,IC50
1,CC(C)[C@@H](Nc1ncnc2[nH]ccc12)c1ccncc1,> 12.4 µM and 34 µM
2,CC(C)[C@@H](Nc1ncnc2[nH]ccc12)c1ccc2c(c1)N(C)CCO2,27.8 µM and 31.7 µM
3,COc1ccc([C@@H](CC(=O)O)NC(=O)c2ccc(NC(=O)NC3CC3)cc2)cc1,57.5 µM and 37.8 µM
4,COc1cccc([C@@H](Nc2ncnc3[nH]ccc23)C(C)C)c1,25.7 µM and 39.9 µM
5,O[C@H]1CCCC[C@@H]1Nc1ncnc2[nH]ccc12,55.4 µM and 64.7 µM
6,CC(C)[C@@H](Nc1ncnc2[nH]ccc12)C(=O)O,15.4 µM and 16.8 µM and 20.9 µM and 20.6 µM
7,O=C(Nc1ccc2c(C(=O)N[C@@H]3c4ccccc4C[C@@H]3C(=O)O)cnn2c1)NC1CC1,63.8 µM and 49.3 µM
8,C[C@@H](Nc1ncnc2[nH]ccc12)[C@@H]1CCS(=O)(=O)C1,> 99.5 µM
9,c1ccc2c(c1)OCC[C@@H]2Nc1ncnc2[nH]ccc12,> 99.5 µM
10,O=C(Nc1cccc2c(C(=O)Nc3ccccc3C(=O)O)c[nH]c12)NC1CC1,19.9 µM and 20 µM
11,CNc1nc(C(=O)N[C@@H](Cc2nn[nH]n2)c2ccc(OC)cc2)c2ccnc-2[nH]1,45.7 µM and 44.7 µM
12,O=C(O)C[C@@H](NC(=O)c1ccc(NC(=O)NC2CC2)cc1)c1cccc(F)c1,27.3 µM and 32.5 µM
13,NC(=O)[C@@H](NC(=O)c1ncnc2[nH]ccc12)c1ccc(Br)cc1,> 99.5 µM
14,COc1ccc([C@H](CC(=O)O)NC(=O)c2ccc(NC(=O)NC3CC3)cc2)cc1,54.1 µM and 51.2 µM and 38.1 µM
15,CCC[C@H](Nc1ncnc2[nH]ccc12)C(=O)O,> 99.5 µM
16,c1nc(N[C@@H](c2ccc3c(c2)OCCO3)[C@@H]2CCN2)c2cc[nH]c2n1,> 99.5 µM
17,O=C(O)C[C@@H](NC(=O)c1ncnc2[nH]ccc12)c1ccc(Nc2nnco2)cc1,6.57 µM and 5.48 µM
18,CC(C)[C@@H](Nc1ncnc2[nH]ccc12)c1ccc(C(F)(F)F)cc1,46.2 µM and 37.2 µM
19,c1nc(N[C@@H](c2ccc3c(c2)OCCO3)C2CCCC2)c2cc[nH]c2n1,2.23 µM and 2.25 µM
20,c1ccc2c(N[C@@H](c3ccc4c(c3)OCCO4)C3CC3)ncnc2c1,> 99.5 µM
21,N#CC[C@@H](NC(=O)c1ncnc2[nH]ccc12)c1ccc(Br)cc1,> 99.5 µM
22,O=C(O)[C@@H](Nc1ncnc2[nH]ccc12)C1CC(F)(F)C1,> 99.5 µM
23,O=C(O)C[C@@H](NC(=O)c1ncnc2[nH]ccc12)c1ccc(NCc2ccno2)cc1,11.3 µM and 13.1 µM
